From patent US9180122B2, “5- or 6-substituted 3-hydroxy-2 (1 H)-pyridinones as D-amino acid oxidase (DAAO) inhibitors in therapy of diseases such as schizophrenia, cognitive disorder and pain” (Takeda Pharmaceutical Company Limited, priority 2011, dated 2015) come the findings set out here.

Chain of Human DAAO enzyme (P14920 whole entry): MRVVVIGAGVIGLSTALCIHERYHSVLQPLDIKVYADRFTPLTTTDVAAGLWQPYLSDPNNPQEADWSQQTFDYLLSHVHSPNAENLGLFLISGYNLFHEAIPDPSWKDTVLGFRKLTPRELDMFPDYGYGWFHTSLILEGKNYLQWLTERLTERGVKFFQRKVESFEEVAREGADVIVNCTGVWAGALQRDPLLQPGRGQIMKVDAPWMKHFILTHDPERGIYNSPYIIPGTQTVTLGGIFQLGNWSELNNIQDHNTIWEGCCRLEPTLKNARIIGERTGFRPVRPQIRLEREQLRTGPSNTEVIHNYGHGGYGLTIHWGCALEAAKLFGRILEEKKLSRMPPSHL

The target in the test is Human DAAO enzyme (Homo sapiens (Human), UniProt P14920). Kind of test: In Vitro DAAO Enzyme Assay (Amplex Red detection of H2O2 from D-Serine). It counts as biochemical. Conditions: 10 mM D-Serine, 60 minutes at 25° C. The protocol:
The functional activity of compounds inhibiting the DAAO enzyme was determined by utilizing the co-product of the catalysis of D-Serine, H2O2 which can be quantitatively measured using the Amplex Red (Invitrogen) detection. Amplex® Red reagent is a colorless substrate that reacts with hydrogen peroxide (H2O2) with a 1:1 stoichiometry in the presence of […] to produce highly fluorescent resorufin (excitation/emission maxima=570/585 nm). The changes in fluorescence were monitored by a fluorescence plate reader, Envision (Perkin Elmer) and increases in DAAO activity were readily detected upon addition of D-Serine and suppression of this response observed with the application of test compounds.
The Km of D-Serine was measured for each enzyme batch to maintain consistency; this Km was used in subsequent assays.
On the day of the assay compounds were serially diluted in DMSO before being diluted 1:20 with assay buffer (20 mM Tris ph 7.4). A 5 μl portion of assay buffer was added to the wells of a 384 clear base black walled plate (Corning), 5 μl of diluted compound was then added via automated plate to plate transfer using the Bravo liquid handler (Agilent technologies) followed by 5 μl of human DAAO enzyme and then 5 μl D-Serine 50 mM was added to all but the negative control wells (final concentration of 10 mM). Finally 5 μl Amplex red reagent (Invitrogen) was added to all wells as per manufacturer's protocol. The plate was incubated for 60 minutes in the dark at 25° C. and the fluorescence in each well was measured in the Envision plate reader.
The IC50 values for compounds were determined from ten point half log scale dose-response studies and represent the concentration of compound required to […] 50% inhibition of DAAO activity in the presence of 10 mM D-Serine. Concentration response curves were generated using the average of duplicate wells for each data point and analyzed using nonlinear regression and four parameter curve fit.
As to `O=c1[nH]cc(SCc2ccccc2)cc1O` [Example 1, 5-(Benzylsulfanyl)-3-hydroxypyridin-2(1H)-one], inhibition was half-maximal at 190 nM (IC50). In the case of `O=c1[nH]cc(SCc2ccc(Cl)cc2)cc1O` [Example 2, 5-[(4-Chlorobenzyl)sulfanyl]-3-hydroxypyridin-2(1H)-one] it was 35 nM. In the case of `Cc1ccc(CSc2c[nH]c(=O)c(O)c2)cc1` [Example 3, 3-Hydroxy-5-[(4-methylbenzyl)sulfanyl]pyridin-2(1H)-one] it was 29 nM. In turn, `Cc1cccc(CSc2c[nH]c(=O)c(O)c2)c1` [Example 4, 3-Hydroxy-5-[(3-methylbenzyl)sulfanyl]pyridin-2(1H)-one] gave an IC50 of 240 nM.

Consider `O=c1[nH]cc(SCc2cccc(Cl)c2)cc1O` [Example 5, 5-[(3-Chlorobenzyl)sulfanyl]-3-hydroxypyridin-2(1H)-one], for which the IC50 is 55 nM. To `CC(Sc1c[nH]c(=O)c(O)c1)c1ccccc1` (centres unmarked) [Example 6, 3-Hydroxy-5-[(1-phenylethyl)sulfanyl]pyridin-2(1H)-one] belongs 1300 nM; to `O=c1[nH]cc(SCc2ccccc2Cl)cc1O` [Example 7, 5-[(2-Chlorobenzyl)sulfanyl]-3-hydroxypyridin-2(1H)-one], 210 nM.

Turning to `O=c1[nH]cc(SCc2cccc(C(F)(F)F)c2)cc1O` [Example 8, 3-Hydroxy-5-{[3-(trifluoromethyl)benzyl]sulfanyl}pyridin-2(1H)-one], it took 190 nM to reach half-maximal inhibition (IC50).

As for `Cc1ccccc1CSc1c[nH]c(=O)c(O)c1` [Example 9, 3-Hydroxy-5-[(2-methylbenzyl)sulfanyl]pyridin-2(1H)-one], half-maximal inhibition (IC50) was put at 390 nM. `O=c1[nH]cc(SCc2cc(F)cc(Cl)c2)cc1O` [Example 10, 5-[(3-Chloro-5-fluorobenzyl)sulfanyl]-3-hydroxypyridin-2(1H)-one] returned an IC50 of 230 nM. In turn, `O=c1[nH]cc(SCc2ccc(F)cc2)cc1O` [Example 11, 5-[(4-Fluorobenzyl)sulfanyl]-3-hydroxypyridin-2(1H)-one] came in with an IC50 of 47 nM. `CCc1ccc(CSc2c[nH]c(=O)c(O)c2)cc1` [Example 12, 5-[(4-Ethylbenzyl)sulfanyl]-3-hydroxypyridin-2(1H)-one] gave an IC50 of 79 nM. `O=c1[nH]cc(SCc2ccc(C(F)(F)F)nc2)cc1O` [Example 13, 3-Hydroxy-5-({[6-(trifluoromethyl)pyridin-3-yl]methyl}-sulfanyl)pyridin-2(1H)-one] gave an IC50 of 160 nM. In the case of `Cc1cccnc1CSc1c[nH]c(=O)c(O)c1` [Example 14, 3-Hydroxy-5-{[(3-methylpyridin-2-yl)methyl]sulfanyl}pyridin-2(1H)-one] it was 1900 nM; in that of `Cc1noc(C)c1CSc1c[nH]c(=O)c(O)c1` [Example 15, 5-{[(3,5-Dimethyl-1,2-oxazol-4-yl)methyl]sulfanyl}-3-hydroxypyridin-2(1H)-one], 1900 nM. For the molecule `Cc1nc(CSc2c[nH]c(=O)c(O)c2)co1` [Example 16, 3-Hydroxy-5-{[(2-methyl-1,3-oxazol-4-yl)methyl]sulfanyl}-pyridin-2(1H)-one], inhibition was half-maximal at 1400 nM (IC50). In the case of `O=c1[nH]cc(SCc2ccccn2)cc1O` [Example 17, 3-Hydroxy-5-[(pyridin-2-ylmethyl)sulfanyl]pyridin-2(1H)-one] it was 460 nM.

Molecule `O=c1[nH]cc(SCc2ccncc2)cc1O` [Example 18, 3-Hydroxy-5-[(pyridin-4-ylmethyl)sulfanyl]pyridin-2(1H)-one] came in with an IC50 of 100 nM. To `O=c1[nH]cc(SCc2ccc(Cl)cn2)cc1O` [Example 19, 5-{[(5-Chloropyridin-2-yl)methyl]sulfanyl}-3-hydroxypyridin-2(1H)-one] belongs 360 nM.

In turn, `O=c1[nH]cc(SCc2ccc(F)c(F)c2)cc1O` [Example 20, 5-[(3,4-Difluorobenzyl)sulfanyl]-3-hydroxypyridin-2(1H)-one] came in with an IC50 of 45 nM.

In the case of `COc1ccc(CSc2c[nH]c(=O)c(O)c2)cc1` [Example 21, 3-Hydroxy-5-[(4-methoxybenzyl)sulfanyl]pyridin-2(1H)-one], the IC50 is 130 nM. As to `O=c1[nH]cc(SCc2cccnc2)cc1O` [Example 22, 3-Hydroxy-5-[(pyridin-3-ylmethyl)sulfanyl]pyridin-2(1H)-one], 250 nM corresponded to half-maximal inhibition (IC50). To `Cc1ccc(CSc2c[nH]c(=O)c(O)c2)nc1` [Example 23, 3-Hydroxy-5-{[(5-methylpyridin-2-yl)methyl]sulfanyl}pyridin-2(1H)-one] belongs 490 nM; to `O=c1[nH]cc(SCc2cnccn2)cc1O` [Example 24, 3-Hydroxy-5-[(pyrazin-2-ylmethyl)sulfanyl]pyridin-2(1H)-one], 1000 nM; to `COc1ccc(CSc2c[nH]c(=O)c(O)c2)cn1` [Example 25, 3-Hydroxy-5-{[(6-methoxypyridin-3-yl)methyl]-sulfanyl}-pyridin-2(1H)-one], 83 nM.

`Cc1ccccc1CCc1c[nH]c(=O)c(O)c1` [Example 26, 3-Hydroxy-5-(2-methylphenethyl)pyridin-2(1H)-one] yielded an IC50 of 350 nM. In the case of `O=c1[nH]cc(CCc2ccccc2)cc1O` [Example 27, 3-Hydroxy-5-(2-phenylethyl)pyridin-2(1H)-one], it took 140 nM to reach half-maximal inhibition (IC50). In the case of `Cc1cccc(CCc2c[nH]c(=O)c(O)c2)c1` [Example 28, 3-Hydroxy-5-[2-(3-methylphenyl)ethyl]pyridin-2(1H)-one] it was 260 nM; in that of `Cc1ccc(CCc2c[nH]c(=O)c(O)c2)cc1` [Example 29, 3-Hydroxy-5-[2-(4-methylphenyl)ethyl]pyridin-2(1H)-one], 52 nM; in that of `O=c1[nH]cc(CCc2ccc(F)cc2)cc1O` [Example 30, 5-[2-(4-Fluorophenyl)ethyl]-3-hydroxypyridin-2(1H)-one], 61 nM. For the molecule `O=c1[nH]cc(CCc2cccc(F)c2)cc1O` [Example 31, 5-[2-(3-Fluorophenyl)ethyl]-3-hydroxypyridin-2(1H)-one], the IC50 is 130 nM. To `O=c1[nH]cc(CCc2ccccc2F)cc1O` [Example 32, 5-[2-(2-Fluorophenyl)ethyl]-3-hydroxypyridin-2(1H)-one] belongs 170 nM; to `O=c1[nH]cc(S(=O)(=O)Cc2ccccc2)cc1O` [Example 33, 5-(Benzylsulfonyl)-3-hydroxypyridin-2(1H)-one], 490 nM; to `O=c1[nH]cc(SCc2cccc(F)c2)cc1O` [Example 34, 5-[(3-Fluorobenzyl)sulfanyl]-3-hydroxypyridin-2(1H)-one], 130 nM. In turn, `O=c1[nH]c(SCc2ccccc2)ccc1O` [Example 35, 6-(benzylsulfanyl)-3-hydroxypyridin-2(1H)-one] came in with an IC50 of 1400 nM.
